Results as given in US20100099681A1, “SUBSTITUTED 5-AMINOPYRAZOLES AND USE THEREOF” (BAYER SCHERING PHARMA AKTIENGESELLSCHAFT, priority 2008, published 2010).

Experiments:
Assay type in all cases: cell-based
[1] = target: T1, adenosine receptor subtype A1 (A1-Gα16 fusion construct) (Homo sapiens, UniProt P30542); test: Indirect determination of adenosine antagonism via gene expression (luciferase reporter), A1; conditions: CHO K1 cells, NFAT-TA-Luc reporter, inhibition of luciferase response to agonist 25 nM CPA
T1 construct: expressed in transfected cells; host or cells: CHO K1
T1 sequence (P30542 with tags, fused parts or gaps): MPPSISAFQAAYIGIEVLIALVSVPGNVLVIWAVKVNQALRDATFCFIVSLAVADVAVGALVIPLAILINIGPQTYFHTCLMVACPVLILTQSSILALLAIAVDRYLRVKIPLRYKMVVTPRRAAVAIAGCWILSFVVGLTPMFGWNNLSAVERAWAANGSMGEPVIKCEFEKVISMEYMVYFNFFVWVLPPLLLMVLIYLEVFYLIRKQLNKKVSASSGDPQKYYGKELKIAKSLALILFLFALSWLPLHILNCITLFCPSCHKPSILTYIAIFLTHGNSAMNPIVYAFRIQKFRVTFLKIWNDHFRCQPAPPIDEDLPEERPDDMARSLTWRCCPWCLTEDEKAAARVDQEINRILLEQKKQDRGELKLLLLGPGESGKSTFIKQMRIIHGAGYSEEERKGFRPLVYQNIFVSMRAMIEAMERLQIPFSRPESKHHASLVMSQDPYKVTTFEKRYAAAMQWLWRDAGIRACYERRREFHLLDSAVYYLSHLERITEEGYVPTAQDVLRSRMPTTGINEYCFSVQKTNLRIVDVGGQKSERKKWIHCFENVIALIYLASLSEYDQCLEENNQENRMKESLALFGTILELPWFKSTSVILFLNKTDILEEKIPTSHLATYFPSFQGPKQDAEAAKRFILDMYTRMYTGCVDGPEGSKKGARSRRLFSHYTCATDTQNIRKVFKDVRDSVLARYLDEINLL
Protocol: For determination of adenosine antagonism on the adenosine receptor subtype A1, once again CHO K1 cells are stably transfected, but this time with a Ca^2+-sensitive reporter construct (NFAT-TA-Luc; Clontech) and an A1-Gα16 fusion construct. This receptor chimera is, in contrast to the native A1 receptor (Gαi-coupling), coupled to phospholipase C. The luciferase is expressed here as a function of the cytosolic Ca^2+ concentration.
(§1) The permanent cell lines are cultured in DMEM/F12-Glutamax (Cat.No. 31331-028; Gibco) with 10% FCS (fetal calf serum) and various additives (10 ml/liter 1M HEPES (Cat.No. 15630; Gibco), 14 ml/liter MEM sodium pyruvate (Cat.No. 11360-039; Gibco) at 37° C. under 5% carbon dioxide, and split twice weekly.
(§2) For testing in the 384-well or 96-well plate format, the cells are sown at 2000 or 5000 cells/well in 25 or 50 μl/well test medium (OptiMEM-Glutamax with 2.5% activated-charcoal-treated FCS, Hyclone) and cultured at 37° C. under 5% carbon dioxide until substance testing. The A2a and A2b cells are sown, 24 h before substance testing, in OptiMEM with 2.5% activated-charcoal-treated FCS (Hyclone). The A1-Gα16 cells are sown, 48 h before substance testing, in OptiMEM-Glutamax with 2.5% activated-charcoal-treated FCS and additives. The substances are pipetted at a final concentration from 1×10^−5 M to 1×10^−11 M to the test cultures, with the DMSO content on the cells not exceeding 0.5%. NECA (5-N-ethyl-carboxamido-adenosine) at a final concentration of 30 nM, which roughly corresponds to the EC50 concentration, is used as agonist for the A2a and A2b cells. 25 nM CPA (N6-cyclopenty adenosine), which roughly corresponds to the EC7-5 concentration, is used as agonist for the A1-Ga16 cells. After adding the substances, the cell plates are incubated for 3-4 h at 37° C. under 5% carbon dioxide. Then 50 μl of a solution consisting to 50% of lysis reagent (Triton buffer, PAA Cat.No. T21-160) and to 50% of luciferase substrate solution (2.5 mM ATP, 0.5 mM luciferin, 0.1 mM coenzyme A, 10 mM Tricin, 1.35 mM magnesium sulfate, 15 mM DTT, pH 7.8) is added to the cells directly before measurement. The luciferase activity is detected with a luminescence reader. The IC50 values are determined, i.e. the concentrations at which the luciferase response, produced by the respective agonist, is inhibited to 50%. The IC50 values are calculated with the computer program GraphPad PRISM (Version 3.02). ZM241385, for the A2a and A2b cells, and DPCPX (1,3-dipropyl-8-cyclopentylxanthine), for the A1-Gα16 cells, are used as reference antagonist.

[2] = target: T2, adenosine receptor subtype A2a (Homo sapiens, UniProt P29274); test: Indirect determination of adenosine antagonism via gene expression (luciferase reporter), A2a; conditions: CHO K1 cells, CRE luciferase reporter; inhibition of luciferase response to agonist 30 nM NECA
T2 construct: expressed in transfected cells; host or cells: CHO K1
Source text: (§3) Cells of the permanent line CHO K1 (Chinese Hamster Ovary) are stably transfected with a reporter construct (CRE luciferase) and the cDNA for the adenosine receptor subtypes A2a or A2b. A2a or A2b receptors are coupled via Gαs proteins to adenylate cyclase. Through receptor activation, the adenylate cyclase is activated and therefore the cAMP level in the cell is increased. Via the reporter construct, a cAMP-dependent promoter, the change in the cAMP level is coupled to luciferase expression.
as §1, §2

[3] = target: T3, adenosine receptor subtype A2b (Homo sapiens, UniProt P29275); test: Indirect determination of adenosine antagonism via gene expression (luciferase reporter), A2b; conditions: CHO K1 cells, CRE luciferase reporter; inhibition of luciferase response to agonist 30 nM NECA
T3 construct: expressed in transfected cells; host or cells: CHO K1
T3 sequence (P29275 1-332): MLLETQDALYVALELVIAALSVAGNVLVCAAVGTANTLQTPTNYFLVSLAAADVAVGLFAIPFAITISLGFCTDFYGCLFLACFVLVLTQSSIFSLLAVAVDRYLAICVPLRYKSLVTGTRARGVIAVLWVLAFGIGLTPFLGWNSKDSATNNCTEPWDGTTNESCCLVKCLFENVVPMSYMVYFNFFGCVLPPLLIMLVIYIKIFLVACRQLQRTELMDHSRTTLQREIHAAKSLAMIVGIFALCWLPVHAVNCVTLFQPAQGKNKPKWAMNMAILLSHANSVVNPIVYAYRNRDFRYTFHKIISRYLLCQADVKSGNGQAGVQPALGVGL
Source text: as §3, §1, §2

T2 sequence (P29274 whole entry): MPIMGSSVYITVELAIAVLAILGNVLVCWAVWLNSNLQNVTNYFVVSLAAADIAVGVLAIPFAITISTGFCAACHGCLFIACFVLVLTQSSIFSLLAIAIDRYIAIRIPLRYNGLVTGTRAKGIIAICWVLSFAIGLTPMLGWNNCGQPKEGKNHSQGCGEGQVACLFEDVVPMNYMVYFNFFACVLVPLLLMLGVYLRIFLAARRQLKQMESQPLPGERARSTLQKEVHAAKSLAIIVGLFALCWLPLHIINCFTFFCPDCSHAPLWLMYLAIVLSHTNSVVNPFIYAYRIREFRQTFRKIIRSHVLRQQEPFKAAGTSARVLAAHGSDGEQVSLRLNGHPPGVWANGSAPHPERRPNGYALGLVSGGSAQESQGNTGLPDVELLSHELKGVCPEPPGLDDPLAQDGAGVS

| Compound | IC50 [1] [nM] | IC50 [2] [nM] | IC50 [3] [nM] |
| --- | --- | --- | --- |
| Cc1ccccc1-n1nc(C)c(-c2ccc3nccnc3c2)c1Nc1ccc(Cl)cc1C(=O)O [Example 2, 2-{[4-(Quinoxalin-6-yl)-3-methyl-1-(2-methylphenyl)-1H-pyrazol-5-yl]amino}-5-chlorobenzoic acid] | 1 | > 10000 | > 10000 |
| Cc1ccccc1-n1nc(C)c(-c2cc(F)c3nccnc3c2)c1Nc1ccccc1C(=O)O [Example 33, 2-{[4-(8-Fluoroquinoxalin-6-yl)-3-methyl-1-(2-methylphenyl)-1H-pyrazol-5-yl]amino}benzoic acid] | 0.6 | > 10000 | > 10000 |
| Cc1ccccc1-n1nc(C)c(-c2cc3nccnc3c(F)c2OCCO)c1Nc1ccccc1C(=O)O [Example 31, 2-({4-[8-Fluoro-7-(2-hydroxyethoxy)quinoxalin-6-yl]-3-methyl-1-(2-methylphenyl)-1H-pyrazol-5-yl}amino)benzoic acid] | 42 | – | – |
| Cc1nn(-c2ccccc2)c(Nc2ccccc2C(=O)O)c1-c1cc2nccnc2c(F)c1F [Example 36, 2-{[4-(7,8-Difluoroquinoxalin-6-yl)-3-methyl-1-phenyl-1H-pyrazol-5-yl]amino}benzoic acid] | 0.7 | > 10000 | > 10000 |
| COc1ccc(Nc2c(-c3ccc4[nH]ncc4c3)c(C)nn2-c2ccccc2C)c(C(=O)O)c1 [Example 9, 2-{[4-(1H-Indazol-5-yl)-3-methyl-1-(2-methylphenyl)-1H-pyrazol-5-yl]amino}-5-methoxybenzoic acid] | 11.2 | > 10000 | > 10000 |
| CCOc1ccccc1-n1nc(C)c(-c2ccc3nccnc3c2)c1Nc1ccc(OC)cc1C(=O)O [Example 22, 2-{[4-(Quinoxalin-6-yl)-1-(2-ethoxyphenyl)-3-methyl-1H-pyrazol-5-yl]amino}-5-methoxybenzoic acid] | 1 | > 10000 | > 10000 |
| Cc1ccccc1-n1nc(C)c(-c2ccc3cccnc3c2)c1Nc1ccccc1C(=O)O [Example 27, 2-{[4-(Quinolin-7-yl)-3-methyl-1-(2-methylphenyl)-1H-pyrazol-5-yl]amino}benzoic acid] | 99 | > 10000 | > 10000 |

Second part, the molecule after the results:

| IC50 [1] [nM] | IC50 [2] [nM] | IC50 [3] [nM] | Compound |
| --- | --- | --- | --- |
| 19 | – | – | Cc1ccccc1-n1nc(C)c(-c2ccc3ncc(N(C)C)nc3c2)c1Nc1ccccc1C(=O)O [Example 28, 2-({4-[3-(Dimethylamino)quinoxalin-6-yl]-3-methyl-1-(2-methylphenyl)-1H-pyrazol-5-yl}amino)benzoic acid] |
| 9.5 | > 10000 | > 10000 | Cc1ccccc1-n1nc(C(F)(F)F)c(-c2ccc3nccnc3c2)c1Nc1ccc(Cl)cc1C(=O)O [Example 6, 2-{[4-(Quinoxalin-6-yl)-1-(2-methylphenyl)-3-(trifluoromethyl)-1H-pyrazol-5-yl]amino}-5-chlorobenzoic acid] |
| 1 | > 10000 | > 10000 | Cc1ccccc1-n1nc(C)c(-c2ccn3nc(N)nc3c2)c1Nc1ccccc1C(=O)O [Example 39, 2-{[4-(2-Amino [1,2,4]triazolo[1,5-a]pyridin-7-yl)-3-methyl-1-(2-methylphenyl)-1H-pyrazol-5-yl]amino}benzoic acid] |
| 1 | > 10000 | > 10000 | CCc1ccc(Nc2c(-c3ccc4nccnc4c3)c(C)nn2-c2ccccc2C)c(C(=O)O)c1 [Example 13, 2-{[4-(Quinoxalin-6-yl)-3-methyl-1-(2-methylphenyl)-1H-pyrazol-5-yl]amino}-5-ethylbenzoic acid] |
| 1.9 | > 10000 | > 10000 | COc1ccc(Nc2c(-c3ccc4ncnn4c3)c(C)nn2-c2ccccc2C)c(C(=O)O)c1 [Example 20, 5-Methoxy-2-{[3-methyl-1-(2-methylphenyl)-4-([1,2,4]triazolo[1,5-a]pyridin-6-yl)-1H-pyrazol-5-yl]amino}benzoic acid] |
| 1.6 | > 10000 | > 10000 | COc1ccc(Nc2c(-c3cc4nccnc4cc3F)c(C)nn2-c2ccccc2C)c(C(=O)O)c1 [Example 16, 2-{[4-(7-Fluoroquinoxalin-6-yl)-3-methyl-1-(2-methylphenyl)-1H-pyrazol-5-yl]amino}-5-methoxybenzoic acid] |
| 8.5 | > 10000 | > 10000 | Cc1nn(-c2ccc(F)cc2F)c(Nc2ccccc2C(=O)O)c1-c1cc(F)c2nccnc2c1 [Example 46, 2-{[1-(2,4-Difluorophenyl)-4-(8-fluoroquinoxalin-6-yl)-3-methyl-1H-pyrazol-5-yl]amino}benzoic acid] |
| 78 | – | – | COc1ccnc2ccc(-c3c(C)nn(-c4ccccc4C)c3Nc3ccccc3C(=O)O)cc12 [Example 32, 2-{[4-(4-Methoxyquinolin-6-yl)-3-methyl-1-(2-methylphenyl)-1H-pyrazol-5-yl]amino}benzoic acid] |
| 23 | > 10000 | > 10000 | Cc1ccccc1-n1nc(C)c(-c2cc(F)c3cncnc3c2)c1Nc1ccccc1C(=O)O [Example 43, 2-{[4-(5-Fluoroquinazolin-7-yl)-3-methyl-1-(2-methylphenyl)-1H-pyrazol-5-yl]amino}benzoic acid] |
| 11.7 | > 10000 | > 10000 | COc1ccc(Nc2c(-c3ccc4scnc4c3)c(C)nn2-c2ccccc2C)c(C(=O)O)c1 [Example 11, 2-{[4-(1,3-Benzothiazol-5-yl)-3-methyl-1-(2-methylphenyl)-1H-pyrazol-5-yl]amino}-5-methoxybenzoic acid] |
